Measured values from patent US8309726B2, “Substituted piperazine compounds of formula 8” (Council of Scientific & Industrial Research, priority 2007, dated 2012).

What was measured:
[1] = test system: calf thymus (CT) DNA; assay: Thermal denaturation studies with duplex-form calf thymus DNA; assay type: binding; conditions: for ΔTm (° C.) after incubation at 37° C. for 0 h / ΔTm (° C.) after incubation at 37° C. for 18 h / ΔTm (° C.) after incubation at 37° C. for 36 h: [ANCD]/[DNA] molar ratio 1:5, CT-DNA 100 μM, ligand 20 μM, sodium phosphate buffer pH 7.00; for ΔTm (° C.) after incubation at 37° C. for 0 h: 0 h at 37° C.; for ΔTm (° C.) after incubation at 37° C. for 18 h: 18 h at 37° C.; for ΔTm (° C.) after incubation at 37° C. for 36 h: 36 h at 37° C.; for Course of ΔTm over incubation at 0 hr, 18 hr and 36 hr: incubation at 37° C., [ANCD]/[DNA] 1:5
Procedure: Compounds were subjected to thermal denaturation studies with duplex-form calf thymus DNA (CT-DNA) using an adaptation of a reported procedure. Working solutions in aqueous buffer (10 mM NaH2PO4/Na2HPO4, 1 mM Na2EDTA, pH 7.00+/−0.01) containing CT-DNA (100 μM in phosphate) and the PBD (20 μM) were prepared by addition of concentrated ANCD solutions in DMSO to obtain a fixed [ANCD]/[DNA] molar ratio of 1:5. The DNA-ANCD solutions were incubated at 37° C. for 0, 18, and 36 h prior to analysis. Samples were monitored at 260 nm using a Beckman DU-7400 spectrophotometer fitted with high performance temperature controller, and heating was applied at 1° C. min^−1 in the 40-90° C. range. DNA helix coil transition temperatures (Tm) were obtained from the maxima in the (dA260)/dT derivative plots. Results are given as the mean+/−standard deviation from three determinations and are corrected for the effects of DMSO co-solvent using a linear correction term. Drug-induced alterations in DNA melting behaviour are given by: ΔTm=Tm (DNA+ANCD)−Tm (DNA alone), where the Tm value for the ANCD-free CT-DNA is 69.0+/−0.01.

[2] = test system: Prostate cancer cell lines; assay: In vitro cytotoxicity, prostate panel; assay type: cell-based; conditions: Homo sapiens, average of six to nine different cancer cell lines, 48 h, SRB, read-out: Log GI50 (concentration in mol/L causing 50% growth inhibition) (converted)
Procedure: (§1) In vitro evaluation of cytotoxic activity: Compounds were evaluated for in vitro anticancer activity against sixty human tumour cells derived from nine cancer types (colon, prostate, oral, lung, cervix and breast cancer) as shown in (Table 1, 2 and 3) 8b, 8c, 8d, and 8e, were evaluated for in vitro anticancer activity against sixty human tumour cells derived from nine cancer types (leukemia, non-small-cell lung, colon, CNS, melanoma, ovarian, prostate, and breast cancer) as shown in (Table 2 and 3). For the compound, dose response curves for each cell line were measured at a minimum of five concentrations at 10 fold dilutions. A protocol of 48 h continuous drug exposure was used and a sulforhodamine B (SRB) protein assay was used to estimate cell viability or growth. The concentration causing 50% cell growth inhibition (GI50), total cell growth inhibition (TGI 0% growth) and 50% cell death (LC50, −50% growth) compared with the control was calculated. The mean graph midpoint values of log10 TGI and log10 LC50 as well as log10 GI50 for 8a, 8b, 8c, 8d, and 8e, are listed in (Table 2 and 3).
(§2) Each cancer type represents the average of six to nine different cancer cell lines. The compounds 8a, 8b, 8c, 8d, 8e and 8f were evaluated for in vitro anticancer activity against sixty human tumour cells derived from nine cancer types (leukemia, colon, prostate, renal melanoma CNS, lung, cervix and breast cancer) as shown in Table 3. Compounds 8b, 8c, 8d and 8e show promising cytotoxicity against some cancer cell lines (Table 2). Compounds 8b, 8c, 8d and 8e have been evaluated for their in vitro cytotoxicity in selected human cancer cell lines of colon (Colo205), lung (Hop-62), cervix (SiHa), prostate (DU145, PC3), oral (DWD, HT1080), and breast (MCF7, Zr-75-1) origin. A protocol of 48 h continuous drug exposure has been used and an […] has been used to estimate cell viability or growth. The results are expressed as percent of cell growth determined relative to that of untreated control cells. […] In the breast cancer panel, the growth of BT-549, MCF-7 cell lines are 10.3, and 17.6. In the prostate cancer panel, the growth of DU-145, PC-3 cell lines are 11.3, and 19.2. The GI50 values of compound In the CNS cancer panel, the growth of SF-539, SNB-75 cell lines are […]. […] In vitro cytotoxicity of compounds 8a, and 8b in selected cancer cell lines has been illustrated in Table 3. The average GI50 values for each cancer panel of compounds 8b, 8c, 8d and 8e have been illustrated in above Table 2 and 3

[3] = test system: CNS cancer cell lines; assay: In vitro cytotoxicity, CNS panel; assay type: cell-based; conditions: Homo sapiens, average of six to nine different cancer cell lines, 48 h, SRB, read-out: Log GI50 (concentration in mol/L causing 50% growth inhibition) (converted)
Procedure: as §1, §2

[4] = test system: Ovarian cancer cell lines; assay: In vitro cytotoxicity, ovarian panel; assay type: cell-based; conditions: Homo sapiens, average of six to nine different cancer cell lines, 48 h, SRB, read-out: Log GI50 (concentration in mol/L causing 50% growth inhibition) (converted)
Procedure: as §1, §2

[5] = test system: human tumour cell lines; assay: In vitro anticancer activity against sixty human tumour cell lines (NCI, SRB assay); assay type: cell-based; conditions: for Log10LC50 mean graph midpoint (MG_MID): 50% cell death; for Log10LC50 mean graph midpoint (MG_MID) / Log10GI50 mean graph midpoint (MG_MID) / Log10TGI50 mean graph midpoint (MG_MID): 48 h continuous drug exposure, SRB assay; for Log10GI50 mean graph midpoint (MG_MID): 50% cell growth inhibition; for GI50: Homo sapiens; for antiproliferative activity: against most of the tested cell lines; for Log10TGI50 mean graph midpoint (MG_MID): total cell growth inhibition
Procedure: as §1, §2

[6] = test system: Breast cancer cell lines; assay: In vitro cytotoxicity, breast panel; assay type: cell-based; conditions: Homo sapiens, average of six to nine different cancer cell lines, 48 h, SRB, read-out: Log GI50 (concentration in mol/L causing 50% growth inhibition) (converted)
Procedure: as §1, §2

[7] = test system: Nonsmall-cell-lung cancer cell lines; assay: In vitro cytotoxicity, non-small-cell lung panel; assay type: cell-based; conditions: Homo sapiens, average of six to nine different cancer cell lines, 48 h, SRB, read-out: Log GI50 (concentration in mol/L causing 50% growth inhibition) (converted)
Procedure: as §1, §2

[8] = test system: Leukemia cancer cell lines; assay: In vitro cytotoxicity, leukemia panel; assay type: cell-based; conditions: Homo sapiens, average of six to nine different cancer cell lines, 48 h, SRB, read-out: Log GI50 (concentration in mol/L causing 50% growth inhibition) (converted)
Procedure: as §1, §2

[9] = test system: Renal cancer cell lines; assay: In vitro cytotoxicity, renal panel; assay type: cell-based; conditions: Homo sapiens, average of six to nine different cancer cell lines, 48 h, SRB, read-out: Log GI50 (concentration in mol/L causing 50% growth inhibition) (converted)
Procedure: as §1, §2

[10] = test system: Colon cancer cell lines; assay: In vitro cytotoxicity, colon panel; assay type: cell-based; conditions: Homo sapiens, average of six to nine different cancer cell lines, 48 h, SRB, read-out: Log GI50 (concentration in mol/L causing 50% growth inhibition) (converted)
Procedure: as §1, §2

[11] = test system: Melanoma cancer cell lines; assay: In vitro cytotoxicity, melanoma panel; assay type: cell-based; conditions: Homo sapiens, average of six to nine different cancer cell lines, 48 h, SRB, read-out: Log GI50 (concentration in mol/L causing 50% growth inhibition) (converted)
Procedure: as §1, §2

[12] = test system: COLO 205 cell line (colon cancer); assay: In vitro cytotoxicity, COLO 205; assay type: cell-based; conditions: Homo sapiens; colon cancer COLO 205
Procedure: (§3) In vitro evaluation of cytotoxic activity: Compounds were evaluated for in vitro anticancer activity against sixty human tumour cells derived from nine cancer types (colon, prostate, oral, lung, cervix and breast cancer) as shown in (Table 1, 2 and 3) 8b, 8c, 8d, and 8e, were evaluated for in vitro anticancer activity against sixty human tumour cells derived from nine cancer types (leukemia, non-small-cell lung, colon, CNS, melanoma, ovarian, prostate, and breast cancer) as shown in (Table 2 and 3). For the compound, dose response curves for each cell line were measured at a minimum of five concentrations at 10 fold dilutions. […]
(§4) Each cancer type represents the average of six to nine different cancer cell lines. The compounds 8a, 8b, 8c, 8d, 8e and 8f were evaluated for in vitro anticancer activity against sixty human tumour cells derived from nine cancer types (leukemia, colon, prostate, renal melanoma CNS, lung, cervix and breast cancer) as shown in Table 3. […] Compounds 8b, 8c, 8d and 8e have been evaluated for their in vitro cytotoxicity in selected human cancer cell lines of colon (Colo205), lung (Hop-62), cervix (SiHa), prostate (DU145, PC3), oral (DWD, HT1080), and breast (MCF7, Zr-75-1) origin. […] The results are expressed as percent of cell growth determined relative to that of untreated control cells. […]

[13] = test system: CNS SF-295, SF-539, SNB-19 and SNB-75 cell lines; assay: In vitro cytotoxicity, CNS cell lines SF-295, SF-539, SNB-19, SNB-75; assay type: cell-based; conditions: Homo sapiens; range over CNS SF-295, SF-539, SNB-19 and SNB-75
Procedure: as §3, §4

[14] = test system: HCT-116 cell line (colon cancer); assay: In vitro cytotoxicity, HCT-116; assay type: cell-based; conditions: Homo sapiens; colon cancer HCT-116
Procedure: as §3, §4

[15] = test system: renal and prostate cancer panels; assay: In vitro cytotoxicity, renal and prostate cancer panels; assay type: cell-based; conditions: Homo sapiens; range over renal and prostate cancer panels
Procedure: as §3, §4

[16] = test system: MCF-7 cell line (breast cancer); assay: In vitro cytotoxicity, MCF-7; assay type: cell-based; conditions: Homo sapiens, MCF7; MCF-7, breast cancer cell panel; read-out: GI50
Procedure: as §3, §4

[17] = test system: KM12 cell line (colon cancer); assay: In vitro cytotoxicity, KM12; assay type: cell-based; conditions: Homo sapiens
Procedure: as §3, §4

[18] = test system: T47D cell line (breast cancer); assay: In vitro cytotoxicity, T47D; assay type: cell-based; conditions: Homo sapiens, breast cancer cell panel
Procedure: as §3, §4

[19] = sixty cell lines in nine cell panels

Compound | ΔTm (° C.) after incubation at 37° C. for 0 h [1] | ΔTm (° C.) after incubation at 37° C. for 18 h [1] | ΔTm (° C.) after incubation at 37° C. for 36 h [1] | Course of ΔTm over incubation at 0 hr, 18 hr and 36 hr [1] | GI50 [2] | GI50 [3] | GI50 [4] | Log10LC50 mean graph midpoint (MG_MID) [5] | Log10GI50 mean graph midpoint (MG_MID) [5] | GI50 [5, 19] | antiproliferative activity [5] | Log10TGI50 mean graph midpoint (MG_MID) [5] | GI50 [6] | GI50 [7] | GI50 [8] | GI50 [9] | GI50 [10] | GI50 [11] | also measured
{2-amino-5-(methyloxy)-4[(phenylmethyl)oxy]phenyl}[4-({2-amino-5-(methyloxy)-4-[(phenylmethyl)oxy]phenyl}carbonyl)hexahydro-1-piperazinyl]methanone [Compound 8g] | 1.6 °C | 2.6 °C | 2.9 °C | gradually increased | – | – | – | – | – | – | – | – | – | – | – | – | – | – | –
COc1cc(C(=O)NC2c3ccccc3-c3ccccc32)c(N)cc1OCc1ccccc1 [Compound 8e, N1-(9H-9-fluorenyl)-2-amino-4-(benzyloxy)-5-methoxybenzamide] | 1.9 °C | 2.3 °C | 2.8 °C | gradually increased | 0.355 µM | 5.5 µM | 10 µM | −4.19 | −6.47 | < 20 µM | nanomolar to low micromolar concentrations | −6.06 | ≤ 0.01 µM | 1.38 µM | 4.27 µM | 15.1 µM | 1.7 µM | 1.78 µM | GI50 ([5]; fifty-seven cell lines in nine cancer cell panels): < 10 µM
COc1cc(C(=O)N2CCN(c3ccccc3OC)CC2)c(NC(=O)c2cnccn2)cc1OCc1ccccc1 [Compound 8f, (4-(Benzyloxy)-5-methoxy-2-(pyrazine-2-carbamido)phenyl)(4-(2-methoxyphenyl)piperazin-1-yl)methanone] | 1.3 °C | 2.1 °C | 3.0 °C | gradually increased | – | – | – | – | – | – | – | – | – | – | – | – | – | – | –
COc1cc(C(=O)N2CCN(c3ncnc4ccccc34)CC2)c(N)cc1OCc1ccccc1 [Compound 8d, [2-amino-4-(benzyloxy)-5-methoxyphenyl][4-(4-quinazolinyl)piperazino]methanone] | 1.5 °C | 1.9 °C | 2.7 °C | gradually increased | 7.24 µM | 1.78 µM | 11.7 µM | −4.62 | −5.62 | < 20 µM | nanomolar to low micromolar concentrations | −5.62 | 7.08 µM | 1.35 µM | 4.07 µM | 5.5 µM | 5.13 µM | 7.24 µM | GI50 [12]: 11.2 µM; GI50 [13]: 11.8 to 24.2 µM; GI50 [14]: 16.3 µM; GI50 [15]: 1.16 to 32.4 µM; GI50 [16]: 12.6 µM; GI50 [17]: 14.6 µM; GI50 [18]: 13.2 µM
COc1cc(C(=O)N2CCN(c3ncccn3)CC2)c(N)cc1OCc1ccccc1 [Compound 8c, [2-amino-4-(benzyloxy)-5-methoxyphenyl][4-(2-pyrimidinyl)piperazino]methanone] | 1.4 °C | 1.6 °C | 2.3 °C | gradually increased | 16.6 µM | 5.89 µM | 5.75 µM | −4.47 | −5.47 | – | nanomolar to low micromolar concentrations | −5.47 | 6.76 µM | 7.24 µM | 5.5 µM | 5.62 µM | 3.39 µM | 1.78 µM | –
